Results on one compound are retold here after ChEMBL document CHEMBL1155049, “Synthesis and cytotoxic activity of benzopyran-based platinum(II) complexes” (Bioorg Med Chem Lett, 2008).

Holding throughout (type): functional, cell-based
Assay [1] in a line: Cytotoxicity against estrogen receptor deficient human MDA-MB-436 cells after 72 hrs by MTT assay. The following applies: MDA-MB-436, 72 h.
In a further assay the test system is MCF7. The assay can be described thus: Cytotoxicity against human MCF7 cells expressing estrogen receptor after 72 hrs by MTT assay. The following applies: MCF7, 72 h.
The test system of a further assay is MDA-MB-231. The assay can be described thus: Cytotoxicity against estrogen receptor deficient human MDA-MB-231 cells after 72 hrs by MTT assay. The note with it: MDA-MB-231, 72 h.
The test system of a further assay is MDA-MB-468. The assay can be described thus: Cytotoxicity against estrogen receptor deficient human MDA-MB-468 cells after 72 hrs by MTT assay. The note with it: MDA-MB-468, 72 h.

As to `COc1ccc2c(c1)OC(C)(C)[C@@H](c1ccccc1)[C@@H]2c1ccc(OCCCCCCNCCCc2ccccn2)cc1`, the IC50 turned out to be 15.7 µM in assay [1], 15.6 µM with MCF7, 18.7 µM in the assay on MDA-MB-231 and 7.61 µM in the assay on MDA-MB-468.
